This series can be described thus: Human HepG2 cell viability assay in 384 well format. Set-up: dose 125 nL, time 70.5 hour; cytotoxicity at 70.5 h: concentration not given beside the values. The following applies: HepG2 cells, read-out: Inhibition. The series is classed as toxicity, cell-based.

Results on 97 molecules are retold here after ChEMBL document CHEMBL3507680, “University of Dundee, Gates Library screen for HepG2 cell viability”.

Molecules are shown by their SMILES.

Regarding `CCN(CCOC)C(=O)CCc1scnc1C`, the cytotoxicity at 70.5 h was -2.82%.

Turning to `CN(Cc1ccc2nsnc2c1)CC1(O)CNCCOC1` (configuration not stated), the cytotoxicity at 70.5 h is -6.32%.

In the case of `Nc1ccc(C(=O)N2CCC(Oc3cccc(C(F)(F)F)c3)CC2)cn1`, the cytotoxicity at 70.5 h was -0.861%.

`COCCN1CC(c2nc(CSC)no2)CCC1=O` (configuration not stated): the cytotoxicity at 70.5 h turned out to be 2.97%.

`N#Cc1ccc(Oc2cc(F)c(CN3CCCC3)c(F)c2)nc1`: the cytotoxicity at 70.5 h was -2.2%.

As for `CC(C)[C@H]1CN(S(C)(=O)=O)C[C@@H]1NC(=O)c1ccnc(N)c1`, the cytotoxicity at 70.5 h was -1.08%.

As for `COCc1noc(-c2ccc(N3CCC[C@H]3CO)nc2)n1`, the cytotoxicity at 70.5 h is -7.06%.

Consider `Nc1cc(-c2cc[nH]n2)nc(N2CCCC2)n1`, for which the cytotoxicity at 70.5 h was 5.5%.

Take `Cc1ncsc1CCN(C)C(=O)CN1C(=O)OC[C@@H]1c1ccccc1`: the cytotoxicity at 70.5 h is 4.46%.

As to `O=C1CCCCCN1CCc1nc(-c2cccnn2)no1`, the cytotoxicity at 70.5 h was -6.78%.

As for `CN1CCN(c2cccc(NC(=O)NCc3csc(N(C)C)n3)c2)C1=O`, the cytotoxicity at 70.5 h worked out at 35.3%.

As to `CC1c2cccn2CCN1C(=O)CCc1nc(-c2ccccc2)no1` (configuration not stated), the cytotoxicity at 70.5 h is -5.32%.

Consider `CC(C)Cc1ncc2c(n1)CN(c1nccc(NC(C)C)n1)C2`, for which the cytotoxicity at 70.5 h turned out to be 2.52%.

On to `CNc1ncccc1C(=O)N1CCN(C)C2(CCN(C)CC2)C1`, for which the cytotoxicity at 70.5 h was -7.09%.

Turning to `Cc1ccc(CSc2nc(N)cc(NCCS(=O)(=O)N(C)C)n2)cc1`, the cytotoxicity at 70.5 h is -2.68%.

In the case of `CCCc1cc(C(=O)N(C)Cc2ccc(OC)c3ncccc23)n(C)n1`, the cytotoxicity at 70.5 h was found to be 2%.

`O[C@H]1Cc2ccccc2[C@H]1n1ccnc1-c1cc2n(n1)CCNC2`: the cytotoxicity at 70.5 h was -2.39%.

For the molecule `COCCN1C[C@H]2CC[C@@H]1CN(C(=O)CCn1cc(Cl)cn1)C2`, the cytotoxicity at 70.5 h is -10.6%.

Turning to `Cc1ccc2nc(C(=O)N3C[C@@H](C(=O)O)[C@H](c4cccnc4)C3)cn2c1`, the cytotoxicity at 70.5 h is -5.46%.

For `N[C@H]1CN(C(=O)c2ccccc2OCCc2ccccc2)C[C@@H]1C1CC1`, the cytotoxicity at 70.5 h was -8.08%.

For `CCn1cnnc1Cn1cccc(C(F)(F)F)c1=O`, the cytotoxicity at 70.5 h came out at 4.98%.

Take `CCc1cnc(C)nc1NC(CC)c1cnn(C)c1` (configuration not stated): the cytotoxicity at 70.5 h is -2.39%.

With `O=C(O)[C@@H]1CN(C(=O)c2ccc3[nH]nnc3c2)C[C@H]1c1ccccc1`, the cytotoxicity at 70.5 h is -4.96%.

In the case of `CC(C)N1CCCC(C(=O)N2CCN(c3cccc(C(=O)O)c3)CC2)C1` (configuration not stated), the cytotoxicity at 70.5 h was determined as 23.2%.

As for `O[C@@H]1CN(c2nc3ccccc3o2)CC[C@H]1c1ccc2c(c1)OCO2`, the cytotoxicity at 70.5 h worked out at 14.9%.

`CN1CCCCCC1C(=O)N1CCN(c2ccccc2C#N)CC1` (configuration not stated): the cytotoxicity at 70.5 h is -8.6%.

As for `N#Cc1cccc(NC(=O)N2CCC3(CCC(=O)N(C4CC4)C3)CC2)c1`, the cytotoxicity at 70.5 h was -2.97%.

For the molecule `CCCN1CCC(N2CCC(Cn3cc(C4CC4)nn3)CC2)CC1`, the cytotoxicity at 70.5 h was -8.35%.

For `Nc1nc2c(c(N3CCOCC3)n1)CCN(C(=O)c1ccc[nH]1)CC2`, the cytotoxicity at 70.5 h was -7.85%.

Regarding `CCCc1nnc(N2CCCC(c3nnc(Cn4ccnc4)n3C)C2)s1` (configuration not stated), the cytotoxicity at 70.5 h is -2.6%.

For `Cc1nc(CNc2nc3c(s2)c(C)nn3C)cs1`, the cytotoxicity at 70.5 h was -8.75%.

With `O=C(NCCc1cc(=O)[nH]cn1)c1[nH]nc2c1CCCC2`, the cytotoxicity at 70.5 h is -5.79%.

Turning to `COCC(=O)N[C@H]1C[C@@H](C(=O)NCCc2cccc(Cl)c2)N(C)C1`, the cytotoxicity at 70.5 h is -13.3%.

For `CCn1c(C2CCN(C(=O)CCc3cc(Cl)no3)CC2)nn(C)c1=O`, the cytotoxicity at 70.5 h is -6.98%.

For the molecule `CN1C(=O)c2ccc(C(=O)N(Cc3cnn(C)c3)C3CC3)cc2C1=O`, the cytotoxicity at 70.5 h is -16.5%.

As to `O=C(NC1CCOCC1)C1CC(=O)N(Cc2ccccn2)C1` (configuration not stated), the cytotoxicity at 70.5 h is -2.88%.

As to `O=C(CSc1ccccc1)N1CCc2c(ncnc2N2CCOCC2)C1`, the cytotoxicity at 70.5 h is 0.558%.

As to `CC(C)n1cnnc1Cn1c(=O)cnc2ccccc21`, the cytotoxicity at 70.5 h was -4.23%.

On to `Cc1nc[nH]c1-c1nccn1CCN1CCOC1=O`, for which the cytotoxicity at 70.5 h is -8.03%.

`COc1nc(C)c(C(=O)NCc2cc(N3CCOCC3)ncn2)s1`: the cytotoxicity at 70.5 h was -2.68%.

For the molecule `CC1=C(C(=O)NCc2cccnc2-n2cnc3ccccc32)OCCO1`, the cytotoxicity at 70.5 h was -0.825%.

As for `Cc1cccc(C(C(=O)NCC2(O)CCCCC2)N(C)C)c1` (configuration not stated), the cytotoxicity at 70.5 h was 14.2%.

As for `CCCc1nc(CN(CC)C(=O)c2ccc(OC)c(OC)c2)no1`, the cytotoxicity at 70.5 h is 25.6%.

As to `CC(C)(C)CN1CCC(c2nnc(Cn3ccnc3)n2C2CC2)CC1`, the cytotoxicity at 70.5 h is -3.87%.

Turning to `CCC[C@H]1CN(c2nc(CO)cs2)C[C@@H]1NC(=O)C1CCC1`, the cytotoxicity at 70.5 h was -5.73%.

With `Cc1ccccc1CC1(CO)CCCN(c2ncnc3sccc23)C1` (configuration not stated), the cytotoxicity at 70.5 h was determined as 31.4%.

For `COc1ccc2nc(CCNC(=O)c3cc(CC(C)C)no3)[nH]c2c1`, the cytotoxicity at 70.5 h was -15.4%.

As for `CC(=O)NCC1CCC2(CCN(c3ncc(C(C)=O)c(C)n3)CC2)O1` (configuration not stated), the cytotoxicity at 70.5 h was -2.5%.

Regarding `Cc1nc(NCC(O)CN2CCCCCC2)c2c(C)nn(C)c2n1` (configuration not stated), the cytotoxicity at 70.5 h is -8.64%.

Regarding `Cc1nc(NC(=O)N2CCCC(C(F)(F)F)C2)nn1C` (configuration not stated), the cytotoxicity at 70.5 h is -8%.

Turning to `CN(C)CCN(C)C1CCN(C(C(=O)O)c2ccc(F)c(Cl)c2)CC1` (configuration not stated), the cytotoxicity at 70.5 h amounted to 5.36%.

`Cc1nc(N)ncc1C(=O)N1CCCC(CCc2ccc(F)c(F)c2)C1` (configuration not stated): the cytotoxicity at 70.5 h is -16.6%.

In the case of `O=S1(=O)C[C@@H]2[C@H](C1)N(Cc1ncc[nH]1)CCN2CCCc1ccccc1`, the cytotoxicity at 70.5 h was -1.68%.

Regarding `CCOCCn1c(=O)n(Cc2ccc(F)cc2)c2ncc(C(=O)O)cc21`, the cytotoxicity at 70.5 h was -4.53%.

As for `COC(C)(C)CC(C)NCc1cn2ccccc2n1` (configuration not stated), the cytotoxicity at 70.5 h is -16.8%.

For `CCc1n[nH]c(C(=O)N2CCC3(CCCN(CCOC)C3=O)C2)c1C` (configuration not stated), the cytotoxicity at 70.5 h was -9.48%.

Turning to `COc1cc2nc(NCCNS(C)(=O)=O)cc(C)c2cc1OC`, the cytotoxicity at 70.5 h is -0.473%.

Consider `COc1ccc(OC)c(C2CCN(c3ccc4cc[nH]c4n3)C2)c1` (configuration not stated), for which the cytotoxicity at 70.5 h is -6.46%.

`CCC(C)N(Cc1cccnc1)Cc1cc2c(cc1Cl)OCO2` (configuration not stated): the cytotoxicity at 70.5 h was -1.59%.

With `O=C(c1cnc(-c2cccnc2)nc1)N1CCSCC1`, the cytotoxicity at 70.5 h amounted to 21.6%.

As for `CC(C)c1noc(Cn2ncn3cccc3c2=O)n1`, the cytotoxicity at 70.5 h was -6.57%.

For `O=C1CC[C@H]2CN(c3ncc(F)cn3)CC[C@H]2N1CCc1c[nH]cn1`, the cytotoxicity at 70.5 h was -8.52%.

With `CN(Cc1nccn1C)c1ccc(-c2nccn2C)nn1`, the cytotoxicity at 70.5 h is 18.2%.

For `COc1ccc(C(=O)C2CCCN(c3cnccn3)C2)c(C)c1` (configuration not stated), the cytotoxicity at 70.5 h is -8.1%.

Take `CC(C)C(=O)N1CCC(c2nc3c([nH]2)CCCNC3=O)CC1`: the cytotoxicity at 70.5 h is -6.35%.

Consider `CSCc1noc(CN(C)C(C)c2nc(C)sc2C)n1` (configuration not stated), for which the cytotoxicity at 70.5 h was found to be 6.01%.

On to `CCOc1ccnc(N[C@@H](Cc2ccccc2)C(N)=O)n1`, for which the cytotoxicity at 70.5 h was -6.36%.

Turning to `CCCC(=O)N1CCCC(Cn2cc(-c3ccc(F)cc3)nn2)C1` (configuration not stated), the cytotoxicity at 70.5 h is -11.1%.

With `O=C(c1ncccc1O)N1CCc2c(ncnc2N2CCOCC2)C1`, the cytotoxicity at 70.5 h was -4.02%.

As for `CC(Cc1cccnc1)Nc1ncnc2cccc(F)c12` (configuration not stated), the cytotoxicity at 70.5 h is 1.44%.

`Cc1cc2ccccc2n1CCC(=O)N1CCC[C@H]1C(N)=O`: the cytotoxicity at 70.5 h is -6.97%.

Turning to `Cc1nn(C)cc1Cn1c(=O)c(C)nc2ccccc21`, the cytotoxicity at 70.5 h was -6.18%.

As to `O=c1[nH]nc(CNCc2ccc(OC34CCCN(CC3)C4)cc2)[nH]1` (configuration not stated), the cytotoxicity at 70.5 h is -4.91%.

Take `CCCSCC(=O)N1CCCC2(CCC(=O)N(CCc3c[nH]cn3)C2)C1` (configuration not stated): the cytotoxicity at 70.5 h was -5.03%.

As to `NC1CCN(S(=O)(=O)c2ccc(C(=O)N3CCSCC3)cc2)C1` (configuration not stated), the cytotoxicity at 70.5 h is -9.37%.

`Cc1ccc(C)c2c(C)c(C(=O)NCCCn3cnnc3)[nH]c12`: the cytotoxicity at 70.5 h was -6.86%.

`CNC(=O)C1CCN(Cc2nc(-c3ccc(SC)cc3)oc2C)C1` (configuration not stated): the cytotoxicity at 70.5 h was -6.93%.

Take `OCCOc1ccccc1CN1CCCC(O)(CO)C1` (configuration not stated): the cytotoxicity at 70.5 h is 9.78%.

In the case of `CSCC[C@@H](CO)Nc1ccc(-c2nc(-c3ccccc3C)no2)cn1`, the cytotoxicity at 70.5 h was -6.4%.

`CS(=O)(=O)N1CCCC1C(=O)Nc1cnc2n1CCCC2` (configuration not stated): the cytotoxicity at 70.5 h was -20.4%.

Take `CNC(=O)c1cn2cc(-c3ccc(F)cc3)n(CC=C(C)C)c(=O)c2n1`: the cytotoxicity at 70.5 h was 19.4%.

Regarding `Cc1cc(CN(C)C(=O)C2CCC(=O)N(CC3CCCCC3)C2)n[nH]1` (configuration not stated), the cytotoxicity at 70.5 h was -8.5%.

With `CN(Cc1noc2c1CCCC2)C(=O)Cn1c(=O)cnc2ccccc21`, the cytotoxicity at 70.5 h is -12.8%.

Take `O=C(c1cc(F)cc(Cl)c1)N1CCN(CCO)[C@@H]2CS(=O)(=O)C[C@@H]21`: the cytotoxicity at 70.5 h is -0.458%.

On to `c1csc(N2CCN(Cc3cc4n(n3)CCNC4)CC2)n1`, for which the cytotoxicity at 70.5 h is 1.93%.

For the molecule `Cc1cnccc1-n1nc(C(C)C)nc1CCN(C)S(C)(=O)=O`, the cytotoxicity at 70.5 h is -1.14%.

`O=C1N(Cc2cccc(F)c2F)CCCC1(O)CNCc1ccccn1` (configuration not stated): the cytotoxicity at 70.5 h is -2.1%.

With `O=C(c1ccc(C2CCCN2C(=O)c2ccoc2)s1)N1CCOCC1` (configuration not stated), the cytotoxicity at 70.5 h was -1.44%.

Turning to `CC(=O)Nc1ccc(Cl)c(C(=O)N(C)C(C)c2nccs2)c1` (configuration not stated), the cytotoxicity at 70.5 h is -3.55%.

As for `CCOC(=O)N1CCC(NC(=O)c2cccc(C3CCCNC3)c2)CC1` (configuration not stated), the cytotoxicity at 70.5 h is -24.4%.

In the case of `O=C(c1cccnc1)N1C[C@@H]2CC[C@H](C1)N(Cc1ccc(F)cc1Cl)C2`, the cytotoxicity at 70.5 h is 2.53%.

As for `CN1CC(c2ccccc2)CC2(CCN(Cc3ncc[nH]3)CC2)C1` (configuration not stated), the cytotoxicity at 70.5 h was -9.18%.

Turning to `O=C(CCCN1CCCCC1)N[C@H](C(=O)O)c1cccc(F)c1F`, the cytotoxicity at 70.5 h was -6.96%.

For the molecule `Oc1ccc(-c2c(-c3ccccc3)ncn2C2CCNC2)cc1` (configuration not stated), the cytotoxicity at 70.5 h was found to be 6.28%.

For the molecule `Cc1cncc(C(=O)N2CCCC(O)(CO)C2)c1` (configuration not stated), the cytotoxicity at 70.5 h is -7.18%.

With `CCN(CC)C(CNS(=O)(=O)NCc1ccccc1)c1ccco1` (configuration not stated), the cytotoxicity at 70.5 h is -2.25%.

Take `N#Cc1cccnc1N1CCCC(CO)(CCOc2ccccc2)C1` (configuration not stated): the cytotoxicity at 70.5 h is -7.83%.
